Laboratory results published in patent US20060122181A1, “Heteroaromatic pentacyclic compound and medicinal use thereof” (Japan Tobacco Inc., priority 2003, published 2006).

Experiments:
[1] = target: T1, Recombinant human protein tyrosine phosphatase 1B (Homo sapiens, UniProt P18031); assay: Protein tyrosine phosphatase 1B inhibitory activity (malachite green, phosphorylated insulin receptor peptide substrate); assay type: biochemical; settings: recombinant human PTP1B, 60 min room temperature, absorbance 650 nm
T1 construct: purchased UBI
T1 sequence (P18031 1-435): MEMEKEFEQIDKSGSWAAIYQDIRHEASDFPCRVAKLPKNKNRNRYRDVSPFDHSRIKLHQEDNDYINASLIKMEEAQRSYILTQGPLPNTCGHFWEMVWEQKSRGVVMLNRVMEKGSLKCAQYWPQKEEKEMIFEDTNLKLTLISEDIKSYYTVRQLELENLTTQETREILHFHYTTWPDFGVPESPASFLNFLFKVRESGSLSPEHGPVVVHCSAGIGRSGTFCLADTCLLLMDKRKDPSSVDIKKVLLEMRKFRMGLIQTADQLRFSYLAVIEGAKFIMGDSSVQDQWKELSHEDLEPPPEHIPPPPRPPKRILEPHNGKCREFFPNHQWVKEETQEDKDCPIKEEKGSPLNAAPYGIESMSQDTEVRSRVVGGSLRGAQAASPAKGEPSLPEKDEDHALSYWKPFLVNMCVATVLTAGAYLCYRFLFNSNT
Experimental: Preparation of Assay Buffer:
A 50 mM Tris-HCl buffer (pH 7.5), 50 mM NaCl and 3 mM dithiothreitol (DTT) were prepared.
[…] 0.1, 0.3, 1, 3 and 10 μM of the test compound were prepared and diluted with the above-mentioned assay buffer to the final dimethyl sulfoxide (DMSO) concentration of not more than 1%. As the control, the assay buffer was used.
Preparation of Substrate:
Recombinant human protein tyrosine phosphatase 1B (manufactured by UBI) was diluted with the above-mentioned assay buffer (1.2 ng/25 μl).
The sample (10 μl) prepared as mentioned above and a substrate (25 μl) were successively added to a 96 well plate, and the enzyme (25 μl) prepared as mentioned above was added and mixed. The mixture was incubated at room temperature for 60 min and a malachite green (120 μl, Biomol), which is a color reagent, was added. The mixture was further incubated at room temperature for 20 min to allow for color development. An absorbance at 650 nm was measured on a plate reader based on which the protein tyrosine phosphatase 1B inhibitory activity of the test compound was evaluated.

IC50 [1] [µM]	melting point	SMILES
0.25	156.5 to 165.5 °C	CCCC(CCC)c1ccc(OCc2ccc(-c3csc(COc4cc(C(=O)O)ccc4N)c3)cc2)cc1 [Example 4-61]
< 0.1	146.7 to 148.9 °C	CCCC(CCC)c1ccc(OCc2ccc(-c3csc(CN(CC(=O)O)Cc4cc5ccccc5o4)c3)cc2)cc1 [Example 4-92]
0.2	115.9 to 121.1 °C	Cc1ccc(OCc2ccc(C3CCCCC3)cc2)c(-c2csc(CN(C(=O)C(=O)O)c3ccc4nc(C)sc4c3)c2)c1 [Example 4-104]
0.17	153.7 to 154.9 °C	CCCC(CCC)c1ccc(OCc2ccc(-c3csc(COc4cc(C(=O)O)ccc4NC(=O)C(C)C)c3)cc2)cc1 [Example 4-57]
0.2		CCCC(CCC)c1ccc(OCc2ccc(-c3csc(COc4cc(C(=O)O)ccc4NC(=O)CN(C)C)c3)cc2)cc1 [Example 4-56]
0.29		CCCC(CCC)c1ccc(OCc2ccc(-c3csc(CN(CC(=O)O)C(=O)N(C)c4ccccc4)c3)cc2)cc1 [Example 4-72]
0.1	194.8 to 197 °C	CCCC(CCC)c1ccc(OCc2ccc(-c3ccc(CN(CC(=O)O)Cc4nc5ccccc5n4CC(=O)N(CC)CC)s3)cc2)cc1 [Example 4-101]
0.12	137.3 to 138.7 °C	CCCC(CCC)c1ccc(OCc2ccc(-c3csc(CN(CC(=O)O)Cc4ccc5ccccc5n4)c3)cc2)cc1 [Example 4-87]
0.12	127.4 to 130 °C	CCCC(CCC)c1ccc(OCc2ccc(-c3ccc(CN(CC(=O)O)Cc4nc5ccccc5o4)s3)cc2)cc1 [Example 4-96]
0.07	176 to 178 °C	CCCC(CCC)c1ccc(OCc2ccc(-c3ccc(C(=O)N4CCC(c5ccc(C(=O)O)cc5)CC4)s3)cc2)cc1 [Example 4-53]
< 0.1	168 to 169.9 °C	C[C@H]1CC[C@H](c2ccc(COc3ccc(-c4ccc(CN(CC5CCCCC5)C(=O)Nc5ccc(C(=O)O)cc5)s4)cc3)cc2)CC1 [Example 4-80]
0.18		CCCC(CCC)c1ccc(OCc2ccc(-c3csc(COc4cc(C(=O)O)ccc4N(C)S(C)(=O)=O)c3)cc2)cc1 [Example 4-59]
0.12	134 to 136 °C	CCCC(CCC)c1ccc(OCc2ccc(-c3ccc(C(=O)N(CC(=O)O)Cc4ccc(C(C)C)cc4)s3)cc2)cc1 [Example 4-44]
0.37	117 to 123.1 °C	Cc1ccc(OCc2ccc(C3CCCCC3)cc2)c(-c2csc(CN(C)[C@@H](Cc3ccccc3)C(=O)O)c2)c1 [Example 4-102]
< 0.1	104.4 to 107.2 °C	CCCC(CCC)c1ccc(OCc2ccc(-c3ccc(CN(CC(=O)O)c4nc5ccccc5s4)s3)cc2)cc1 [Example 4-99]
0.19	194.2 to 195.5 °C	CCCC(CCC)c1ccc(OCc2ccc(-c3csc(COc4ccc(C(=O)O)cc4)c3)cc2)cc1 [Example 4-58]
0.27	121 to 128 °C	O=C(O)CCN(Cc1ccccc1)Cc1ccc(-c2ccc3c(c2)CCC3Cc2ccc(C3CCCCC3)cc2)s1 (stereo not drawn) [Example 4-84]
0.17	185 to 188 °C	CCCC(CCC)c1ccc(OCc2ccc(-c3ccc(C(=O)N(CC(=O)O)Cc4nc5ccccc5n4C)s3)cc2)cc1 [Example 4-42]
0.17		CCCC(CCC)c1ccc(OCc2ccc(-c3csc(CN(CC(=O)O)Cc4nc5ccccc5n4C)c3)cc2)cc1 [Example 4-30]
0.11	202.3 to 204.4 °C	CCCC(CCC)c1ccc(OCc2ccc(-c3ccc(CN(CC(=O)O)Cc4cc5ccccc5s4)s3)cc2)cc1 [Example 4-97]
< 0.1		CCCC(CCC)c1ccc(OCc2ccc(-c3ccc(CN(CC(=O)O)C(c4ccccc4)c4ccccc4)s3)cc2)cc1 [Example 4-81]
0.45	227.3 to 233.6 °C	Cl.O=C(O)C1(c2ccccc2)CCN(Cc2ccc(-c3cn(Cc4ccc(C5CCCCC5)cc4)c4ccccc34)s2)CC1 [Example 4-62]
0.16		CCCC(CCC)c1ccc(OCc2ccc(-c3ccc(C(=O)N(CC(=O)O)Cc4ncc(C(C)(C)C)s4)s3)cc2)cc1 [Example 4-43]
0.15		CCCC(CCC)c1ccc(OCc2ccc(-c3ccc(C(=O)N4CCN(c5ccc(C(=O)O)cc5)CC4)s3)cc2)cc1 [Example 4-52]
0.15		CCCC(CCC)c1ccc(OCc2ccc(-c3ccc(CN(CC(=O)O)Cc4nc5ccccc5n4C)s3)cc2)cc1 [Example 4-1]
0.087		CCCC(CCC)c1ccc(OCc2ccc(-c3ccc(CN(CC(=O)O)Cc4nc(C(C)(C)C)cs4)s3)cc2)cc1 [Example 4-35]
	161 to 166 °C	CC(C)(C)Cc1nc2ccccc2n1Cc1ccc(-c2csc(CN(CC(=O)O)Cc3ccccc3)c2)cc1 [Example 4-85]
	78 to 82 °C	CCCC(CCC)c1ccc(N(Cc2ccc(-c3ccc(CN(CC(=O)O)Cc4nc(C(C)(C)C)cs4)s3)cc2)C(C)C)cc1 [Example 4-20]

The remaining lines, values behind:

SMILES	IC50 [1] [µM]	melting point
CCCC(CCC)c1ccc(CN(C)c2ccc(-c3csc(CN(C)[C@H](C(=O)O)c4ccccc4)n3)cc2)cc1 [Example 3-87]	0.21	146 °C
CCCC(CCC)c1ccc(Cn2cc(-c3csc(CN4CCc5ccc(C(=O)O)cc5C4)n3)c3ccccc32)cc1 [Example 1-166]	0.31	124 to 128 °C
CN(C[C@H]1CC[C@H](c2ccc(Cl)cc2)CC1)c1ccc(-c2csc(CN(CC(=O)O)Cc3ccccc3)n2)cc1 [Example 3-34]	0.16	180 to 182 °C
CN(Cc1ccc(C(=O)O)cc1)c1nc(-c2ccc(C(=O)Nc3ccc(C4CCCCC4)cc3)cc2)cs1 [Example 1-53]	0.24	
CCCC(CCC)c1ccc(COc2ccc(-c3csc(CN4CCC(c5cccc(C(=O)O)c5)CC4)n3)cc2)cc1 [Example 1-162]	0.21	187 to 189 °C
CCC(CC)c1ccc(COc2ccc(-c3csc(CN(CC(=O)O)Cc4ccc(F)cc4)n3)cc2)cc1 [Example 3-14]	0.38	153 to 155 °C
CCCC(CCC)c1ccc(Cn2cc(-c3csc(CNc4cccc(C(=O)O)c4)n3)c3ccccc32)cc1 [Example 1-167]	0.41	83 to 85 °C
CCCC(CCC)c1ccc(COc2ccc(-c3csc(CN4CCC(c5ccc(C(=O)O)cc5)CC4)n3)cc2)cc1 [Example 1-161]	0.18	191 to 193 °C
CCCC(CCC)c1ccc(COc2ccc(-c3csc(CN4Cc5ccccc5C[C@H]4C(=O)O)n3)cc2)cc1 [Example 3-26]	0.11	90 to 93 °C
CCCC(CCC)c1ccc(COc2ccc(-c3csc(CN4CCN(c5ccccc5C(=O)O)CC4)n3)cc2)cc1 [Example 1-155]	0.37	137 to 138 °C
CN(C[C@H]1CC[C@H](c2ccc(Cl)cc2)CC1)c1ccc(-c2csc(CN3CCC(C(=O)O)(c4ccccc4)CC3)n2)cc1 [Example 3-70]	0.16	167 to 170 °C (dec.)
CCCC(CCC)c1ccc(OCc2ccc(-c3csc(CN4CCc5ccc(C(=O)O)cc5C4)n3)cc2)cc1 [Example 1-160]	0.31	148.5 to 149.5 °C
CCCC(CCC)c1ccc(OCc2ccc(-c3csc(CN(C)S(=O)(=O)c4ccc(C(=O)O)cc4)n3)cc2)cc1 [Example 1-50]	0.14	
CN(Cc1ccc(C2CCC(C)(C)CC2)cc1)c1ccc(-c2csc(CN(CC(=O)O)Cc3ccccc3)n2)cc1 [Example 3-35]	0.073	
CCCC(CCC)c1ccc(Cn2c(-c3ccccc3)c(-c3csc(CN4CCC(C(=O)O)CC4)n3)c3ccccc32)cc1 [Example 1-183]		101 to 103 °C
CCCC(CC)c1ccc(N(Cc2ccc(-c3csc(CN4CCC(C(=O)O)CC4)n3)cc2)C(C)C)cc1 (stereo not drawn) [Example 1-152]		149 to 151 °C
CCCC(CCC)c1ccc(OCc2ccc(-c3csc(COc4ncccc4C(=O)O)n3)cc2)cc1 [Example 1-76]		154.5 °C
CN(Cc1ccc(SCC(C)(C)C)cc1)c1ccc(-c2csc(CN(CC(=O)O)Cc3ccccc3)n2)cc1 [Example 3-41]		143 °C
CCCC(CCC)c1ccc(OCc2ccc(-c3csc(CN(CC(=O)O)CC(=O)Nc4ccccc4)n3)cc2)cc1 [Example 1-95]		149.5 °C
CCCC(CCC)c1ccc(COc2ccc(-c3csc(CN4Cc5ccccc5CC4C(=O)O)n3)cc2)cc1 (stereo not drawn) [Example 3-118]		127 to 130 °C
CCCC(CCC)c1ccc(OCc2ccc(-c3csc(CN(CC(=O)O)CC(=O)Nc4ccc(OC)cc4)n3)cc2)cc1 [Example 1-98]		176.5 °C
CCCC(CCC)c1ccc(CN(C)c2ccc(-c3csc(CN(CC(=O)O)C(=O)c4ccc(C)cc4)n3)cc2)cc1 [Example 3-62]		114 to 117 °C
